# In patent US8414989B2, “Cyclodextrin compositions, articles, and methods” (Cellresin Technologies, LLC, priority 2011, dated 2013):
# Columns and labels:
# [1] = Example 2: headspace analysis of 1-butene/c/α-CD powder (GC-FID); type: physicochemical; conditions: 100 mg 1-butene/c/α-CD powder, 250 mL bottle, no water, about 1 hour
# Description: 1-butene/c/α-CD was analyzed by adding 100 mg of the collected and dried precipitate to a 250 mL glass bottle equipped with a septum cap, taking care to ensure that no powder adheres to the walls of the bottle. After about 1 hour, 250 μL of headspace gas was removed from the bottle using a six port, two-position gas sampling valve (Valco #EC6W) interfaced directly to a gas chromatograph (GC; Hewlett Packard 5890) using a RTx-5 GC column, 30 m×0.25 mm I.D., 0.25 μm film (obtained from Restek, Inc., of Bellefonte, Pa.) and equipped with flame ionization detector (FID). […] Then 3 mL of water was injected into the bottle through the septum, and the bottle is placed on a mechanical shaker and mixed vigorously for about 1 hour. After the shaking, 250 μL of the headspace gas is removed and added to an empty 250 mL bottle equipped with a septum cap, wherein the interior of the bottle was purged with nitrogen gas. The headspace concentration of 1-butene was quantified in the second bottle using gas chromatography by removing 250 μL, of gas from the 250 mL bottle using a six port, two-position gas sampling valve (Valco #EC6W) interfaced directly to a GC column having FID detector previously calibrated with a 6-point 1-butene (99.0% pure, Scott Specialty Gases, Plumsteadville, Pa.) calibration curve.
# [2] = Example 2: 1-butene headspace release from UV-cured coating on polyethylene extrusion coated paper; type: physicochemical; conditions: cured 1-butene/c/α-CD coated 5 cm x 10 cm rectangle, 250 mL bottle; for Headspace concentration of 1-butene, Ave.: 50 μL water, average of six
# Description: A 20 mL bottle was charged with 9.8 g of UV Coating VP 10169/60 MF-2NE (obtained from Verga GmbH of Aschau am Inn, Germany) and 0.2 g of 1-butene/c/α-CD. The bottle was firmly capped and the components were mixed by shaking the bottle by hand until uniformly dispersed.
# About 3 mL of the mixture was removed with a dropper dispensed on a glass pan. A rubber ink roller was used to spread the mixture on the glass and roller. Next, the roller was used to coat the mixture on the coated side of a 20 cm by 20 cm section of polyethylene extrusion coated paper (REYNOLDS® Freezer Paper, 90 microns total thickness). The roller delivered a coating nominal thickness of 0.3 microns. A razor blade was used to cut a 5 cm by 10 cm rectangle from the coated sheet. Then the coated cut rectangle was passed by hand about 10 cm beneath a medium pressure mercury arc lamp operating at 200 watts per inch (79 watts per cm). After 1.5 seconds exposure to the lamp, the cured rectangle was removed. The cured rectangle was allowed to sit on a laboratory bench overnight coating side down.
# Six replicate coated rectangles were made in this fashion. Each rectangle was placed in a 250 mL serum bottle. Then the six bottles were sealed with TEFLON® faced silicone septa. The 1-butene headspace concentration was quantified using gas chromatography by removing 250 μL of gas from the sample bottle using a six port, two-position gas sampling valve interfaced directly to the GC column having FID detector.
# Then 50 μL of deionized water was injected into each bottle. […] The headspace of each of the six sealed bottles was analyzed at 0.5, 1, 2, 4, 8, 24, and 96 hours after the injection of water wherein about 3 mL of the 250 mL bottle headspace volume was removed for each analysis. In each sampling, the amount of 1-butene released from the UV coated rectangles was quantified by gas chromatography against a 6-point 1-butene calibration curve having a 0.998 correlation coefficient. Table 1 and FIG. 1 illustrate the average of six replicate samples of 1-butene headspace concentration and standard deviation.
smiles,measurement,setting,value
"C=CCC [1-Butene, 1-butene]",Headspace concentration of 1-butene,[1],No measurable concentration
same,"Headspace concentration of 1-butene, Ave.",[2]; 0.5 hours,0.46 ppm (v/v)
same,"Headspace concentration of 1-butene, Ave.",[2]; 1 hour,1.5 ppm (v/v)
same,"Headspace concentration of 1-butene, Ave.",[2]; 2 hours,3.0 ppm (v/v)
same,"Headspace concentration of 1-butene, Ave.",[2]; 4 hours,4.9 ppm (v/v)
same,"Headspace concentration of 1-butene, Ave.",[2]; 8 hours,6.0 ppm (v/v)
same,"Headspace concentration of 1-butene, Ave.",[2]; 24 hours,7.6 ppm (v/v)
same,"Headspace concentration of 1-butene, Ave.",[2]; 96 hours,7.8 ppm (v/v)
same,Headspace concentration of 1-butene,[2]; before water injection,No measurable concentration
